This test deals with P388 leukemia ip, CD2F1 mice, survival T/C. The experiment in a line: NCI In Vivo Anticancer Drug Screen. Data for tumor model P388 Leukemia (intraperitoneal) in CD2F1 (CDF1) mice. To be noted: endpoint: median survival time, higher = longer survival. The method in brief: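 Mice carrying the transplanted tumor received test compound or vehicle. Survival was recorded in each group, and the value is the treated-group measurement divided by that of the vehicle-treated control group.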

Setting [1] is: dose: 50.0 mg/kg/injection, schedule: Q01DX005 (ip), vehicle: saline with Tween-80.
The mark [2] stands for this setting: dose: 200.0 mg/kg/injection, schedule: Q01DX005 (ip), vehicle: saline with Tween-80.
Where [3] appears, read: dose: 60.0 mg/kg/injection, schedule: Q01DX005 (ip), vehicle: saline.
The mark [4] stands for this setting: dose: 120.0 mg/kg/injection, schedule: Q01DX005 (ip), vehicle: saline.
Setting [5] is: dose: 240.0 mg/kg/injection, schedule: Q01DX005 (ip), vehicle: saline.
Where [6] appears, read: dose: 50.0 mg/kg/injection, schedule: Q01DX009 (ip), vehicle: Klucel (hydroxypropylcellulose) (HPC).
The mark [7] stands for this setting: dose: 100.0 mg/kg/injection, schedule: Q01DX009 (ip), vehicle: Klucel (hydroxypropylcellulose) (HPC).
Where [8] appears, read: dose: 200.0 mg/kg/injection, schedule: Q01DX009 (ip), vehicle: Klucel (hydroxypropylcellulose) (HPC).
[9] abbreviates: dose: 100.0 mg/kg/injection, schedule: Q04DX002 (ip), vehicle: Klucel (hydroxypropylcellulose) (HPC).
The mark [10] stands for this setting: dose: 200.0 mg/kg/injection, schedule: Q04DX002 (ip), vehicle: Klucel (hydroxypropylcellulose) (HPC).
Where [11] appears, read: dose: 400.0 mg/kg/injection, schedule: Q04DX002 (ip), vehicle: Klucel (hydroxypropylcellulose) (HPC).
The mark [12] stands for this setting: dose: 60.0 mg/kg/injection, schedule: Q01DX005 (ip), vehicle: saline with Tween-80.
The mark [13] stands for this setting: dose: 120.0 mg/kg/injection, schedule: Q01DX005 (ip), vehicle: saline with Tween-80.
Setting [14] is: dose: 240.0 mg/kg/injection, schedule: Q01DX005 (ip), vehicle: saline with Tween-80.
The mark [15] stands for this setting: dose: 50.0 mg/kg/injection, schedule: Q01DX009 (ip), vehicle: saline with Tween-80.
Where [16] appears, read: dose: 100.0 mg/kg/injection, schedule: Q01DX009 (ip), vehicle: saline with Tween-80.
[17] abbreviates: dose: 200.0 mg/kg/injection, schedule: Q01DX009 (ip), vehicle: saline with Tween-80.
[18] abbreviates: dose: 100.0 mg/kg/injection, schedule: Q01DX001 (ip), vehicle: Klucel (hydroxypropylcellulose) (HPC).
[19] abbreviates: dose: 200.0 mg/kg/injection, schedule: Q01DX001 (ip), vehicle: Klucel (hydroxypropylcellulose) (HPC).
Setting [20] is: dose: 400.0 mg/kg/injection, schedule: Q01DX001 (ip), vehicle: Klucel (hydroxypropylcellulose) (HPC).
[21] abbreviates: dose: 100.0 mg/kg/injection, schedule: Q01DX005 (ip), vehicle: saline with Tween-80.

The values below come from PubChem BioAssay AID330 (DTP/NCI, 2004).

Several values for one entry are separate records, joined by “and”; a condition that tells them apart may be missing. Identical values can stand only once. Inconclusive results and toxic doses are left out.

`COC(=O)[C@@]12OC[C@@]34[C@@H](CC5=C(C)C(=O)C(O)=C[C@]5(C)[C@H]3[C@@H](O)[C@@H]1O)OC(=O)[C@H](OC(=O)/C=C(\C)C(C)(C)OC(C)=O)[C@@H]24`: the T/C runs as follows: (dose: 0.25 mg/kg/injection, schedule: Q01DX009 (ip), vehicle: saline + alcohol) 106 % of control; (dose: 0.5 mg/kg/injection, schedule: Q01DX009 (ip), vehicle: saline + alcohol) 110 % of control and 123 % of control; (dose: 4.0 mg/kg/injection, schedule: Q01DX009 (ip), vehicle: saline + alcohol) 157 % of control and 159 % of control; (dose: 8.0 mg/kg/injection, schedule: Q01DX009 (ip), vehicle: saline + alcohol) 175 % of control.
As to `Nc1nc2nc(N)[nH]c2c(=O)[nH]1`, the T/C was 95 % of control (dose: 12.5 mg/kg/injection, schedule: Q01DX005 (ip), vehicle: saline with Tween-80); 100 % of control and 105 % of control and 106 % of control (dose: 25.0 mg/kg/injection, schedule: Q01DX005 (ip), vehicle: saline with Tween-80); 100 % of control and 104 % of control and 113 % of control under setting [1]; 107 % of control under setting [2].
`COCCCCCC(=O)OC`: the T/C runs as follows: under setting [3], 101 % of control; under setting [4], 100 % of control; under setting [5], 104 % of control.
Turning to `NC(=O)Nc1ccc(Cc2ccc(NC(N)=O)cc2)cc1`, the T/C is 94 % of control under setting [6], 94 % of control under setting [7] and 91 % of control under setting [8].
Take `COc1ccc(NC(=S)Nc2ccc(OCCCN3CCOCC3)cc2)cc1`: the T/C under setting [9] is 96 % of control, the T/C under setting [10] is 94 % of control and the T/C under setting [11] is 94 % of control.
Regarding `O=C1NC(=O)C(CCO)(c2ccccc2)C(=O)N1`, the T/C reads like this: under setting [12], 88 % of control; under setting [13], 105 % of control; under setting [14], 100 % of control.
On to `CC1C(=O)SCC1(O)c1ccccc1` (centres undefined), for which the T/C was 102 % of control under setting [9], 103 % of control under setting [10] and 107 % of control under setting [11].
With `Cc1cc(Cl)ccc1S(=O)(=O)F`, the T/C reads like this: under setting [15], 113 % of control; under setting [16], 113 % of control; under setting [17], 98 % of control.
For `Cc1c(-c2ccc(Cl)cc2)n[nH]c1-c1[nH]nc(-c2ccc(Cl)cc2)c1C`, the T/C under setting [12] was 105 % of control, the T/C under setting [13] was 105 % of control and the T/C under setting [14] was 94 % of control.
In the case of `O=C1C2CC3OC3CC2C(=O)N1CCCCCCN1C(=O)C2CC3OC3CC2C1=O` (centres undefined), the T/C was 91 % of control (dose: 50.0 mg/kg/injection, schedule: Q01DX005 (ip), vehicle: Klucel (hydroxypropylcellulose) (HPC)); 90 % of control (dose: 100.0 mg/kg/injection, schedule: Q01DX005 (ip), vehicle: Klucel (hydroxypropylcellulose) (HPC)); 89 % of control (dose: 200.0 mg/kg/injection, schedule: Q01DX005 (ip), vehicle: Klucel (hydroxypropylcellulose) (HPC)).
For `COC(=O)C1C2CCCN2OC1(C)CO` (centres undefined), the T/C was 100 % of control (dose: 7.5 mg/kg/injection, schedule: Q01DX005 (ip), vehicle: saline); 106 % of control (dose: 15.0 mg/kg/injection, schedule: Q01DX005 (ip), vehicle: saline); 203 % of control under setting [3]; 96 % of control under setting [4]; 99 % of control under setting [5].
For the compound `O=C(SCNS(=O)(=O)c1ccccc1)c1ccccc1`, the T/C is, setting by setting: under setting [18], 111 % of control; under setting [19], 113 % of control; under setting [20], 114 % of control.
As for `COc1cc(OC)c(C(C)=O)c(OC)c1OC`, the T/C was 106 % of control under setting [15], 113 % of control under setting [16] and 106 % of control under setting [17].
Turning to `COc1ccc(-n2c(=O)c(N=Nc3ccccc3C)c(O)n(-c3ccccc3Cl)c2=S)cc1`, the T/C by setting is: under setting [18], 100 % of control; under setting [19], 99 % of control; under setting [20], 95 % of control.
For `CCCCCCCCCCCCCCCC(=O)OCC(CO)OC(=O)CCCCCCCCCCCCCCC` (centres undefined), the T/C under setting [6] was 91 % of control, the T/C under setting [7] is 87 % of control and the T/C under setting [8] was 89 % of control.
Turning to `NC(CC1C(=O)Nc2ccccc21)C(=O)O` (centres undefined), the T/C was 104 % of control under setting [1], 103 % of control under setting [21] and 103 % of control under setting [2].
With `O=C1CC2c3ccccc3C1c1ccccc12`, the T/C under setting [1] was 95 % of control, the T/C under setting [21] was 94 % of control and the T/C under setting [2] was 96 % of control.
On to `CC(NCc1ccccc1)[Si](C)(C)C` (centres undefined), for which the T/C by setting is: under setting [1], 102 % of control; under setting [21], 105 % of control.
Take `CC1Nc2ccccc2NC1C` (centres undefined): the T/C reads like this: (dose: 6.25 mg/kg/injection, schedule: Q01DX009 (ip), vehicle: saline + Tween-80 + alcohol) 98 % of control; (dose: 12.5 mg/kg/injection, schedule: Q01DX009 (ip), vehicle: saline + Tween-80 + alcohol) 96 % of control; (dose: 25.0 mg/kg/injection, schedule: Q01DX009 (ip), vehicle: saline + Tween-80 + alcohol) 99 % of control and 95 % of control; (dose: 50.0 mg/kg/injection, schedule: Q01DX009 (ip), vehicle: saline + Tween-80 + alcohol) 91 % of control; (dose: 100.0 mg/kg/injection, schedule: Q01DX009 (ip), vehicle: saline + Tween-80 + alcohol) 100 % of control.
Turning to `COc1ccc(-c2nn(CCO)c(=O)c(C#N)c2-c2ccc(OC)cc2)cc1`, the T/C reads like this: (dose: 25.0 mg/kg/injection, schedule: Q04DX002 (ip), vehicle: distilled water + Tween-80) 101 % of control; (dose: 50.0 mg/kg/injection, schedule: Q04DX002 (ip), vehicle: distilled water + Tween-80) 98 % of control; (dose: 100.0 mg/kg/injection, schedule: Q04DX002 (ip), vehicle: distilled water + Tween-80) 103 % of control; (dose: 200.0 mg/kg/injection, schedule: Q04DX002 (ip), vehicle: distilled water + Tween-80) 89 % of control.
Take `CCCCOc1ccc(C(=S)NC(=O)Nc2ccccc2)cc1`: the T/C (dose: 3.0 mg/kg/injection, schedule: Q01DX009 (ip), vehicle: saline with Tween-80) was 123 % of control; the T/C (dose: 6.0 mg/kg/injection, schedule: Q01DX009 (ip), vehicle: saline with Tween-80) was 103 % of control; the T/C (dose: 12.0 mg/kg/injection, schedule: Q01DX009 (ip), vehicle: saline with Tween-80) was 98 % of control.
For `CNCCc1c(C2C3C(C=C(C)CC3(C)C)c3c(CCNC)c4ccccc4n32)[nH]c2ccccc12` (centres undefined), the T/C is 107 % of control (dose: 4.0 mg/kg/injection, schedule: Q01DX009 (ip), vehicle: saline); 110 % of control (dose: 8.0 mg/kg/injection, schedule: Q01DX009 (ip), vehicle: saline); 115 % of control (dose: 16.0 mg/kg/injection, schedule: Q01DX009 (ip), vehicle: saline); 114 % of control (dose: 32.0 mg/kg/injection, schedule: Q01DX009 (ip), vehicle: saline).
For `O=C(O)CNCC(=O)O`, the T/C was 94 % of control (dose: 12.5 mg/kg/injection, schedule: Q01DX009 (ip), vehicle: saline); 99 % of control (dose: 25.0 mg/kg/injection, schedule: Q01DX009 (ip), vehicle: saline); 93 % of control (dose: 50.0 mg/kg/injection, schedule: Q01DX009 (ip), vehicle: saline); 100 % of control and 98 % of control (dose: 100.0 mg/kg/injection, schedule: Q01DX009 (ip), vehicle: saline); 100 % of control (dose: 200.0 mg/kg/injection, schedule: Q01DX009 (ip), vehicle: saline); 90 % of control (dose: 400.0 mg/kg/injection, schedule: Q01DX009 (ip), vehicle: saline).
